Assay results published in patent US20250186442A1, “Obicetrapib and Ezetimibe Combination Treatment and Fixed Dose Pharmaceutical Compositions” (NewAmsterdam Pharma B.V., priority 2022, published 2025).

Experiments:
ApoB = assay: ROSE2 phase 2b clinical trial - ApoB; format: in vivo, human; conditions: obicetrapib 10 mg, ezetimibe 10 mg
Experimental: The secondary objectives of this study include the following, in hierarchical order: • To evaluate the effect of obicetrapib 10 mg monotherapy compared with placebo, when used as an adjunct to high-intensity statin therapy, on LDL-C at Day 84; • To evaluate the effect of obicetrapib 10 mg+ezetimibe 10 mg combination therapy compared with placebo, when used as an adjunct to high-intensity statin therapy, on ApoB at Day 84; and • To evaluate the effect of obicetrapib 10 mg monotherapy compared with placebo, when used as an adjunct to high-intensity statin therapy, on ApoB at Day 84.
(§1) This study will be a placebo-controlled, double-blind, randomized, Phase 2 study to evaluate the efficacy, safety, and tolerability of obicetrapib 10 mg, both in combination with ezetimibe 10 mg and as monotherapy, as an adjunct to high-intensity statin therapy. This study will take place at approximately 20 sites in the United States.
(§2) Up to 2 weeks after the Screening Visit, participants will return to the site on Day 1 (Visit 2) and confirm study eligibility before being randomized and beginning treatment. Approximately 114 eligible participants (38 participants per treatment group) will be randomized in a 1:1:1 ratio to 1 of the following treatment groups: • Combination therapy: Obicetrapib 10 mg+ezetimibe 10 mg (administered as one 10 mg obicetrapib tablet and one 10 mg ezetimibe capsule); • Obicetrapib monotherapy: Obicetrapib 10 mg (administered as one 10 mg obicetrapib tablet and 1 placebo capsule); or • Placebo (administered as 1 placebo tablet and 1 placebo capsule).
The secondary efficacy endpoints include the following, in hierarchical order: • Percent change from Day 1 to Day 84 in LDL-C for the obicetrapib 10 mg monotherapy • treatment group compared with the placebo group; • Percent change from Day 1 to Day 84 in ApoB for the obicetrapib 10 mg+ezetimibe 10 mg • combination treatment group compared with the placebo group; and • Percent change from Day 1 to Day 84 in ApoB for the obicetrapib 10 mg monotherapy treatment group compared with the placebo group.
(§3) Blood samples for the lipid profile must be obtained under fasting conditions (ie, after the participant has fasted for approximately 10 hours). For the purposes of this study, fasting will be defined as nothing by mouth except water and any essential medications. If a participant is not fasting, the Investigator should reschedule the visit as soon as possible. LDL-C level will be calculated using the Friedewald equation unless TG≥400 mg/dL or LDL-C≤50 mg/dL; in both cases, LDL-C level will be measured directly by preparative ultracentrifugation, also referred to as beta quantification. Additionally, LDL-C will be measured by preparative ultracentrifugation, also referred to as beta quantification, at baseline (Visit 2) and at the end of the 12-week Treatment Period (Visit 4) for all participants.
The Modified ITT (mITT) Population will include all participants in the ITT Population who receive at least 1 dose of any study drug and have a baseline value for the LDL-C assessment. Any efficacy measurement obtained during the Safety Follow-up Visit (Visit 5) after a participant permanently discontinues the study drug or after a participant receives an excluded medication and/or procedure will be removed from the mITT analysis. Treatment classification will be based on the randomized treatment. The mITT Population will be used for the primary analysis of all efficacy endpoints.

Lp(a) [1] = conditions: TA-8995-06; following 12 weeks of treatment; cited from earlier work
Lp(a) [2] = assay: ROSE2 phase 2b clinical trial - Lp(a); format: in vivo, human; conditions: mITT Population; obicetrapib 10 mg, ezetimibe 10 mg
Experimental: The exploratory objectives of this study include the following: • To evaluate the effect of obicetrapib 10 mg+ezetimibe 10 mg combination therapy and obicetrapib 10 mg monotherapy, when used as an adjunct to high-intensity statin therapy, on non-high-density lipoprotein cholesterol (non-HDL-C), very low-density lipoprotein cholesterol (VLDL-C), HDL-C, TG, ApoE, Lp(a), and HDL-ApoE at Day 84; • To evaluate the effect of obicetrapib 10 mg+ezetimibe 10 mg combination therapy and obicetrapib 10 mg monotherapy, when used as an adjunct to high-intensity statin therapy, on the proportion of participants achieving predefined LDL-C targets at Day 84; • To assess the mean trough plasma levels of obicetrapib 10 mg+ezetimibe 10 mg combination therapy and obicetrapib 10 mg monotherapy at steady state on Days 28, 84, and 112; and • To evaluate the safety and tolerability profiles of obicetrapib 10 mg+ezetimibe 10 mg combination therapy and obicetrapib 10 mg monotherapy, when used as an adjunct to high-intensity statin therapy, assessed by clinical laboratory values and incidence of AEs.
as §1, §2
The exploratory efficacy endpoints include the following: • Percent change from Day 1 to Day 84 in non-HDL-C, VLDL-C, HDL-C, TG, ApoE, Lp(a), and HDL-ApoE for the obicetrapib 10 mg+ezetimibe 10 mg combination treatment group compared with the placebo group and for the obicetrapib 10 mg monotherapy treatment group compared with the placebo group; and • Proportion of participants at Day 84 that achieve LDL-C<2.6 mmol/L (<100 mg/dL), LDL-C<1.8 mmol/L (<70 mg/dL), and LDL-C<1.3 mmol/L (<50 mg/dL) for the obicetrapib 10 mg+ezetimibe 10 mg combination treatment group compared with the placebo group and for the obicetrapib 10 mg monotherapy treatment group compared with the placebo group.
as §3
The Modified ITT (mITT) Population will include all participants in the ITT Population who receive at least 1 dose of any study drug and have a baseline value for the LDL-C assessment. […]

[3] = TA-8995-07, healthy males; cited from earlier work

SMILES: CCOC(=O)N1c2ccc(C(F)(F)F)cc2[C@@H](N(Cc2cc(C(F)(F)F)cc(C(F)(F)F)c2)c2ncc(OCCCC(=O)O)cn2)C[C@H]1CC [Obicetrapib, {4-[(2-{[3,5-bis(trifluoromethyl)benzyl][(2R,4S)-1-(ethoxycarbonyl)-2-ethyl-6-(trifluoromethyl)-1,2,3,4-tetrahydroquinolin-4-yl]amino}pyrimidin-5-yl)oxy]butanoic acid}]
- ApoB Change from Baseline to Day 28, Mean (ApoB; Exploratory Population): -24.2 mg/dL
- ApoB Change from Baseline to Day 28, Median (ApoB; Exploratory Population): -23.0 mg/dL
- ApoB Change from Baseline to Day 84, Mean (ApoB; Exploratory Population): -20.5 mg/dL
- ApoB Change from Baseline to Day 84, Median (ApoB; Exploratory Population): -21.5 mg/dL
- ApoB Day 28, Mean (ApoB; Exploratory Population): 65.4 mg/dL
- ApoB Day 28, Median (ApoB; Exploratory Population): 64.5 mg/dL
- ApoB Day 84, Mean (ApoB; Exploratory Population): 69.1 mg/dL
- ApoB Day 84, Median (ApoB; Exploratory Population): 65.0 mg/dL
- ApoB Percent Change from Baseline to Day 28 (%), Mean (ApoB; Exploratory Population): −26.00%
- ApoB Percent Change from Baseline to Day 28 (%), Median (ApoB; Exploratory Population): −26.00%
- ApoB Percent Change from Baseline to Day 84 (%), Mean (ApoB; Exploratory Population): −21.73%
- ApoB Percent Change from Baseline to Day 84 (%), Median (ApoB; Exploratory Population): −24.20%
- ApoB Change from Baseline to Day 28, Mean (ApoB; mITT Population): -18.9 mg/dL
- ApoB Change from Baseline to Day 28, Median (ApoB; mITT Population): -20.0 mg/dL
- ApoB Change from Baseline to Day 84, Mean (ApoB; mITT Population): -10.4 mg/dL
- ApoB Change from Baseline to Day 84, Median (ApoB; mITT Population): -14.5 mg/dL
- ApoB Day 28, Mean (ApoB; mITT Population): 73.4 mg/dL
- ApoB Day 28, Median (ApoB; mITT Population): 66.0 mg/dL
- ApoB Day 84, Mean (ApoB; mITT Population): 82.4 mg/dL
- ApoB Day 84, Median (ApoB; mITT Population): 72.0 mg/dL
- ApoB Percent Change from Baseline to Day 28 (%), Mean (ApoB; mITT Population): −19.16%
- ApoB Percent Change from Baseline to Day 28 (%), Median (ApoB; mITT Population): −23.10%
- ApoB Percent Change from Baseline to Day 84 (%), Mean (ApoB; mITT Population): −9.50%
- ApoB Percent Change from Baseline to Day 84 (%), Median (ApoB; mITT Population): −17.35%
- Lp(a) levels (Lp(a) [1]): statistically significant reduction
- Lp(a) Change from Baseline to Day 84, Mean (Lp(a) [2]): -19.71 nmol/L
- Lp(a) Change from Baseline to Day 84, Median (Lp(a) [2]): -4.50 nmol/L
- Lp(a) Day 84, Mean (Lp(a) [2]): 77.96 nmol/L
- Lp(a) Day 84, Median (Lp(a) [2]): 26.25 nmol/L
- Lp(a) Percent Change from Baseline to Day 84 (%), Mean (Lp(a) [2]): −15.16%
- Lp(a) Percent Change from Baseline to Day 84 (%), Median (Lp(a) [2]): −11.95%
- absorption [3]: steadily absorbed
- principal route of excretion [3]: in the feces
